{
  "source": "patent US11998615B2",
  "about": "“Functionalized nanoparticles and their use in treating bacterial infections” (The Board of Trustees of the Leland Stanford Junior …, priority 2021, dated 2024)",
  "key": {"[1]": {"tested_on": "intra-macrophage PA (XDR)", "test": "24 h intracellular infection model: intra-macrophage PA (XDR) in RAW 264.7 cells", "type": "cell-based, Pseudomonas aeruginosa", "details": "MOI 10, 3 μg/mL ciprofloxacin equivalent", "from_the_text": "FIGS. 5A-5C. […] Data shown reflect mean±SD of three replicates.\nHowever, a critical gap exists in our general understanding of how macrophages respond physiologically to the thiol antioxidant inhibition strategy. Here, we will examine how the thiol antioxidant inhibition strategy (i.e., increased ROS levels) contributes to macrophages killing and intracellular persister cell death."}, "[2]": {"tested_on": "TNF-α", "test": "TNF-α secretion by RAW 264.7 cells", "type": "cell-based, murine", "details": "2 μg/mL of ciprofloxacin"}, "[3]": {"tested_on": "ciprofloxacin-induced persister cells from PA (XDR)", "test": "Eradication of ciprofloxacin-induced persister cells from PA (XDR)", "type": "cell-based, Pseudomonas aeruginosa", "details": "3 μg/mL ciprofloxacin equivalent, 24 h in PBS; persisters generated with 600 μg/mL ciprofloxacin", "method": "FIGS. 3A-3E. […] Data shown reflect mean±SD of three replicates.\nAfter removing the drugs, the surviving bacteria were enumerated. […] The steady-state level of H2O2 inside the unstressed aerobic bacterial cell has been projected to be about 50 nM (47). […] The H2O2 level was quantified by measuring the area under the curve (AUC) (FIGS. 3B, 3C)."}, "[4]": {"tested_on": "extensively drug-resistant (XDR) PA", "test": "Growth inhibition (MIC) of extensively drug-resistant PA", "type": "cell-based, Pseudomonas aeruginosa", "details": "for AuNC, concentration of ciprofloxacin within the AuNC", "from_the_text": "FIGS. 2A-2F. […] PA01 is sensitized (FIGS. 2A-2B). […]. […] Data shown reflect mean±SD of three replicates.\nH2O2 contributes causatively to antibiotics lethality (48). H2O2 is generated as a downstream physiological consequence of antibiotics interacting with their traditional targets. […] Thus, the main challenge to reach lethal H2O2 levels in resistant bacteria is to design molecules that inhibit the antioxidant defense mechanisms. […]."}},
  "note": "“Also recorded” adds a separate entry of the source.",
  "data": [
    {"smiles": "O=C(O)c1cn(C2CC2)c2cc(N3CCNCC3)c(F)cc2c1=O", "note": "[ciprofloxacin]", "values": [
      {"measurement": "residual intra-macrophage bacteria (CFU), in words", "setting": "[1]", "value": "fails; also recorded: no significant difference"},
      {"measurement": "average TNF levels", "setting": "[2]", "value": "53.75 ± 2", "unit": "pg/mL"},
      {"measurement": "eradication of persister cells (in words)", "setting": "[3]", "value": "fails; also recorded: survival persisters"},
      {"measurement": "ciprofloxacin concentration that inhibits growth of PA (XDR)", "setting": "[4]", "value": "> 127.6", "unit": "µg/mL"}
    ]}
  ]
}
